The target of the assay is T1, human PTH1 receptor (Homo sapiens, UniProt Q03431).
T1 sequence (Q03431 27-593): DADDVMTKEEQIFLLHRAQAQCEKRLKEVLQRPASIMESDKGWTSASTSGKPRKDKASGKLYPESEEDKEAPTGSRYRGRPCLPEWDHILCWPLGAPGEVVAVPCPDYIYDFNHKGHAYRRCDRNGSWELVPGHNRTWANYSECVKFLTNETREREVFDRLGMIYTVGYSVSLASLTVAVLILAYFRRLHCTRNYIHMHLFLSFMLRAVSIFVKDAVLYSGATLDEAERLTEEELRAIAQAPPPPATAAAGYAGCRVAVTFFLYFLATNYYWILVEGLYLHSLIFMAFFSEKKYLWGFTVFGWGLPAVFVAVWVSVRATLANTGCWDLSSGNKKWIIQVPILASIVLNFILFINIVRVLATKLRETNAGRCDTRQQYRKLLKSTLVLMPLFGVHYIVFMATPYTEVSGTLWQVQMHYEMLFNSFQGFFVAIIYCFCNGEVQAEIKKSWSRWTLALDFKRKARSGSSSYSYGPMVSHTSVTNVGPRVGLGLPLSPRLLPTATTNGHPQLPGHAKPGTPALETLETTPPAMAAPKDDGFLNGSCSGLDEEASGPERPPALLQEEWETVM
As to the kind of experiment: In vitro cAMP signal activity in HKRK-B7 cells (LLC-PK1 cells overexpressing the human PTH1 receptor). Particulars: HKRK-B7 cells; compound at 1×10^−3 M; cAMP produced as percentage of that produced by hPTH(1-34) at 100 nM. It counts as cell-based.

SMILES strings stand for the structures.

For the molecule `Cc1cc(C(=O)N(C)C)ccc1CCS(=O)(=O)N1CCC2(CC1)N=C(Cc1cccc(C(F)(F)F)c1)NC2=O` [Compound 135, 3,N,N-trimethyl-4-{2-[4-oxo-2-(3-trifluoromethyl-benzyl)-1,3,8-triaza-spiro[4.5]dec-1-ene-8-sulfonyl]-ethyl}-benzamide], the “cAMP production activity (%)” value was 67%.
For `CC(C)(C)C1=NC2(CCN(S(=O)(=O)CCc3cccc4ccccc34)CC2)C(=O)N1` [Compound 36, 2-tert-butyl-8-(2-naphthalen-1-yl-ethanesulfonyl)-1,3,8-triaza-spiro[4.5]dec-1-en-4-one] the value was 3.5%; for `Cc1cc(C(=O)N(C)C)ccc1CCS(=O)(=O)N1CCC2(CC1)N=C(c1cccc(OC(F)(F)F)c1)N=C2NCC1CCCCC1` [Compound 898, 4-{2-[4-(cyclohexylmethyl-amino)-2-(3-trifluoromethoxy-phenyl)-1,3,8-triaza-spiro[4.5]deca-1,3-diene-8-sulfonyl]-ethyl}-3,N,N-trimethyl-benzamide], 4.3%.
For `O=C1NC(c2cccc(OC(F)(F)F)c2)=NC12CCN(S(=O)(=O)CCc1cccc3c1ccn3C[C@H](O)CO)CC2` [Compound 746, 8-{2-[1-((S)-2,3-dihydroxy-propyl)-1H-indol-4-yl]-ethanesulfonyl}-2-(3-trifluoromethoxy-phenyl)-1,3,8-triaza-spiro[4.5]dec-1-en-4-one] the value was 120%.
For `Cc1cc(N2C(=O)C[C@H](NC(=O)OC(C)(C)C)C2=O)ccc1/C=C/S(=O)(=O)N1CCC2(CC1)N=C(c1cccc(C(F)(F)F)c1)NC2=O` [Compound 525, [(S)-1-(3-methyl-4-{(E)-2-[4-oxo-2-(3-trifluoromethyl-phenyl)-1,3,8-triaza-spiro[4.5]dec-1-ene-8-sulfonyl]-vinyl}-phenyl)-2,5-dioxo-pyrrolidin-3-yl]-carbamic acid tert-butyl ester], the “cAMP production activity (%)” value worked out at 14%.
For the molecule `Cc1cc(C(=O)N2CCC(O)CC2)cc(C)c1/C=C/S(=O)(=O)N1CCC2(CC1)N=C(c1cccc(C(F)(F)F)c1)NC2=O` [Compound 384, 8-{(E)-2-[4-(4-hydroxy-piperidine-1-carbonyl)-2,6-dimethyl-phenyl]-ethenesulfonyl}-2-(3-trifluoromethyl-phenyl)-1,3,8-triaza-spiro[4.5]dec-1-en-4-one], the “cAMP production activity (%)” value was 61%.
With `Cc1cc(OC[C@H](O)CO)cc(C)c1CCS(=O)(=O)N1CCC2(CC1)N=C(C1CCC(CCC(F)(F)F)CC1)NC2=O` (stereo partly drawn) [Compound 821, 8-{2-[4-((R)-2,3-dihydroxy-propoxy)-2,6-dimethyl-phenyl]-ethanesulfonyl}-2-[4-(3,3,3-trifluoro-propyl)-cyclohexyl]-1,3,8-triaza-spiro[4.5]dec-1-en-4-one], the “cAMP production activity (%)” value was found to be 82%.
With `O=C1NC(c2cccc(C(F)(F)F)c2)=NC12CCN(S(=O)(=O)c1cccc(Cl)c1)CC2` [Compound 31, 8-(3-chloro-benzenesulfonyl)-2-(3-trifluoromethyl-phenyl)-1,3,8-triaza-spiro[4.5]dec-1-en-4-one], the “cAMP production activity (%)” value is reported as 41%.
As for `Cn1ccc2cccc(CCS(=O)(=O)N3CCC4(CC3)N=C(c3cccc(OC(F)(F)F)c3)NC4=O)c21` [Compound 308, 8-[2-(1-methyl-1H-indol-7-yl)-ethanesulfonyl]-2-(3-trifluoromethoxy-phenyl)-1,3,8-triaza-spiro[4.5]dec-1-en-4-one], the figure is 72%; as for `CCCCCCCCCC1=NC2(CCN(S(=O)(=O)CCc3c(C)cc(N4C(=O)CNC4=O)cc3C)CC2)C(=O)N1` [Compound 832, 3-{3,5-dimethyl-4-[2-(2-nonyl-4-oxo-1,3,8-triaza-spiro[4.5]dec-1-ene-8-sulfonyl)-ethyl]-phenyl}-imidazolidine-2,4-dione], 84%.
Turning to `O=C1NC(C2CCCCC2)=NC12CCN(S(=O)(=O)/C=C/c1ccc3[nH]ccc3c1)CC2` [Compound 178, 2-Cyclohexyl-8-[(E)-2-(1H-indol-5-yl)-ethenesulfonyl]-1,3,8-triaza-spiro[4.5]dec-1-en-4-one], the “cAMP production activity (%)” value was 29%.
As for `O=C(CO)NCc1ccc(/C=C/S(=O)(=O)N2CCC3(CC2)N=C(C2CCCCC2)NC3=O)cc1` [Compound 489, N-{4-[(E)-2-(2-cyclohexyl-4-oxo-1,3,8-triaza-spiro[4.5]dec-1-ene-8-sulfonyl)-vinyl]-benzyl}-2-hydroxy-acetamide], the figure is 37%.
As for `O=C1NC(c2cccc(OC(F)(F)F)c2)=NC12CCN(S(=O)(=O)/C=C/c1cccc3c1ccn3C[C@H](O)CO)CC2` [Compound 526, 8-{(E)-2-[1-((S)-2,3-dihydroxy-propyl)-1H-indol-4-yl]-ethenesulfonyl}-2-(3-trifluoromethoxy-phenyl)-1,3,8-triaza-spiro[4.5]dec-1-en-4-one], the figure is 83%; as for `Cc1ccc(C2=NC3(CCN(S(=O)(=O)/C=C/c4c(C)cc(C(=O)N5CCC(C)(O)CC5)cc4C)CC3)C(=O)N2)cc1C` [Compound 1237, 2-(3,4-dimethyl-phenyl)-8-{(E)-2-[4-(4-hydroxy-4-methyl-piperidine-1-carbonyl)-2,6-dimethyl-phenyl]-ethenesulfonyl}-1,3,8-triaza-spiro[4.5]dec-1-en-4-one], 96%.
As to `CC(=O)NS(=O)(=O)c1ccc(/C=C/S(=O)(=O)N2CCC3(CC2)N=C(c2cccc(C(F)(F)F)c2)NC3=O)c(C)c1` [Compound 594, N-acetyl-3-methyl-4-{(E)-2-[4-oxo-2-(3-trifluoromethyl-phenyl)-1,3,8-triaza-spiro[4.5]dec-1-ene-8-sulfonyl]-vinyl}-benzenesulfonamide], the “cAMP production activity (%)” value turned out to be 69%.
On to `Cc1cc(C(=O)N(C)C)ccc1CCS(=O)(=O)N1CCC2(CC1)N=C(c1ccc(Cl)c(C(F)(F)F)c1)NC2=O` [Compound 126, 4-{2-[2-(4-chloro-3-trifluoromethyl-phenyl)-4-oxo-1,3,8-triaza-spiro[4.5]dec-1-ene-8-sulfonyl]-ethyl}-3,N,N-trimethyl-benzamide], for which the “cAMP production activity (%)” value amounted to 79%.
For `Cc1cc(C(=O)N2CCC(O)(CF)CC2)ccc1CCS(=O)(=O)N1CCC2(CC1)N=C([C@H]1CC[C@H](CC=C(F)F)CC1)NC2=O` [Compound 974, 2-[4-(3,3-difluoro-allyl)-cyclohexyl]-8-{2-[4-(4-fluoromethyl-4-hydroxy-piperidine-1-carbonyl)-2-methyl-phenyl]-ethanesulfonyl}-1,3,8-triaza-spiro[4.5]dec-1-en-4-one] the value was 111%; for `Cc1cc(N(C)C(N)=O)cc(C)c1CC[S@TB4](=O)(=O)N1CCC2(CC1)N=C(CCC(F)(F)CCCCCC(F)(F)F)NC2=O` [Compound 1147, 1-(3,5-dimethyl-4-{2-[4-oxo-2-(3,3,9,9,9-pentafluoro-nonyl)-1,3,8-triaza-spiro[4.5]dec-1-ene-8-sulfonyl]-ethyl}-phenyl)-1-methyl-urea], 112%; for `COc1cccc(C2=NC3(CCN(S(=O)(=O)CCc4ccc(C(=O)N(C)C)cc4C)CC3)C(=O)N2)c1` [Compound 80, 4-{2-[2-(3-methoxy-phenyl)-4-oxo-1,3,8-triaza-spiro[4.5]dec-1-ene-8-sulfonyl]-ethyl}-3,N,N-trimethyl-benzamide], 71%.
